Values joined by “and” are separate entries in the source; they are usually repeats but may differ in a detail not shown here. Equal entries are not always repeated.
Conditions: meniscus disappearance in a closed cell

CC(C)C [2-methylpropane]
Conditions | mass density
390.4 K, Liquid | 388.9 kg/m3
391.4 K, Gas | 90.6 kg/m3
393.73 K, Gas | 98.2 kg/m3
394.98 K, Gas | 101.1 kg/m3
397.49 K, Liquid | 358.7 kg/m3
398.81 K, Gas | 114.2 kg/m3
400.69 K, Liquid | 341.9 kg/m3
402.34 K, Liquid | 330.3 kg/m3
404.54 K, Gas | 142 kg/m3
405.22 K, Liquid | 308.1 kg/m3
406.17 K, Gas | 160.4 kg/m3
406.71 K, Liquid | 289.4 kg/m3
406.96 K, Liquid | 284.3 kg/m3
407.03 K, Gas | 173.9 kg/m3
407.21 K, Gas | 179.1 kg/m3
407.52 K, Liquid | 271 kg/m3
407.65 K, Gas | 192.9 kg/m3
407.75 K, Liquid | 244.3 kg/m3
407.76 K, Gas | 202.3 kg/m3
407.79 K, Gas | 219.3 kg/m3 and 225.4 kg/m3
407.8 K, Liquid | 229.4 kg/m3
